The term IC50 denotes the concentration that inhibits the measured activity by half.

The experiment concerns the target T1, USP19 (Homo sapiens, UniProt O94966).
T1 sequence (O94966 1-1318): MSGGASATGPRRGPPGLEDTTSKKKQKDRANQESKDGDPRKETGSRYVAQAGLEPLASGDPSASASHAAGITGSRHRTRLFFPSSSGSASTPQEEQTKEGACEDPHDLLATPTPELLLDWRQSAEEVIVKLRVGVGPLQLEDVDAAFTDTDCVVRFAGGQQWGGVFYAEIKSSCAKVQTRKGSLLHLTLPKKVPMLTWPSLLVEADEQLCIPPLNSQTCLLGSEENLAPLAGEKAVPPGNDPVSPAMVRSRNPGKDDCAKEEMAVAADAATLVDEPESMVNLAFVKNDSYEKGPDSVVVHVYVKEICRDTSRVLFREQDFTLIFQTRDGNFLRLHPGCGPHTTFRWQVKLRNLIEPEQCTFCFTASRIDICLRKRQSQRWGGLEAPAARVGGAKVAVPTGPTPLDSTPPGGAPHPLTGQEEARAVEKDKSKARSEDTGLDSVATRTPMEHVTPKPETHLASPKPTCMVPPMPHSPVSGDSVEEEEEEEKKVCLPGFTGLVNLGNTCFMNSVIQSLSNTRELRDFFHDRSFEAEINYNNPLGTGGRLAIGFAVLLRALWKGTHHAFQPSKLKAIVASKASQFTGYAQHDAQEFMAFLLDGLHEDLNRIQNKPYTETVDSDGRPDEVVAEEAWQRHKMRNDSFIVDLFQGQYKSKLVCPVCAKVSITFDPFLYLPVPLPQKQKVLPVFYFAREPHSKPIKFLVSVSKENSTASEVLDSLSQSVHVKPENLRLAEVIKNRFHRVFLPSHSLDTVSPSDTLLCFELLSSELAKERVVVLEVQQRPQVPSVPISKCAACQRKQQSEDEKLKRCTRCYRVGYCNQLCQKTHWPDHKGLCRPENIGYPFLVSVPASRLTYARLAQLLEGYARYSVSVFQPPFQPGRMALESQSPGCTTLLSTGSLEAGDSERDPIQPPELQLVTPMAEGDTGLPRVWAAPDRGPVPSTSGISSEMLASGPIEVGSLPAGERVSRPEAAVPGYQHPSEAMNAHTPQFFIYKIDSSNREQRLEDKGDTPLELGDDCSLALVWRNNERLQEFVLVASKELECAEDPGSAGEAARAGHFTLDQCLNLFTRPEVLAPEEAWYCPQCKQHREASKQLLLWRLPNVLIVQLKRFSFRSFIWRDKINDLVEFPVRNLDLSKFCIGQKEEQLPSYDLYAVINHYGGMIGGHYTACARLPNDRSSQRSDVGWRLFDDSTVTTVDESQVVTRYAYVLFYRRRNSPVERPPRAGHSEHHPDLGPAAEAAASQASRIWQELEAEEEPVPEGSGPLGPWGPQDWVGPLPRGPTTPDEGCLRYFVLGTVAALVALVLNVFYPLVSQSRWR
Description: USP19 fluorescence polarisation (FP) homogeneous assay. The format is biochemical. The arrangement: Full-length USP19 was purchased from Boston Biochem (E-576); purchased Boston Biochem E-576. Conditions: Ubiquitin-Lys-TAMRA substrate, full-length USP19 2.5 nM, average of at least two duplicate experiments. Here is the method:
Unless otherwise stated, all other reagents were purchased from Sigma. Enzymatic reactions were conducted in black flat bottom polystyrene 384-well plates (Nunc) and 30 μL total volume. […] Inhibitors were stored as 10 mM DMSO stocks in an inert environment (low humidity, dark, low oxygen, room temperature) using the Storage Pod System and serial dilutions were prepared in buffer just prior to the assay (from 200 μM to 2 μM, 8-18 data point curve). Following incubation at RT for 30 min, the enzymatic reactions were initiated by dispensing the Ub substrate (500 nM, 10 μL). FP was measured every 15 min over a period of 90 min (within the linear range of the assay) using a Synergy 4 plate reader (BioTek) exciting at 530 nm and measuring the amount of parallel and perpendicular light at 575 nm. The FP signal was subsequently normalised to the no compound control.
`CC(C)CC(C)C(=O)N1CCC(O)(Cn2cc(C(=O)N(C)C)c(-c3ccccc3)cc2=O)C2(CCCC2)C1` (stereo not drawn) [Example 197, 1-((7-(2,4-Dimethylpentanoyl)-10-hydroxy-7-azaspiro[4.5]decan-10-yl)methyl)-N,N-dimethyl-6-oxo-4-phenyl-1,6-dihydropyridine-3-carboxamide]: the IC50 is < 0.5 µM.
As for `C[C@H](CC1CCCCC1)C(=O)N1CC[C@@](O)(Cn2cc(C(=O)N(C)C)c(-c3ccccc3F)cc2=O)C(C)(C)C1` [Example 205, 1-(((S)-1-((R)-3-Cyclohexyl-2-methylpropanoyl)-4-hydroxy-3,3-dimethylpiperidin-4-yl)methyl)-4-(2-fluorophenyl)-N,N-dimethyl-6-oxo-1,6-dihydropyridine-3-carboxamide], the IC50 was < 0.5 µM.
For `C[C@H](CC1CCCCC1)C(=O)N1CC[C@@](O)(Cn2cc(C(=O)N3CCNCC3)c(-c3ccccc3F)cc2=O)C(C)(C)C1` [Example 206, 1-(((S)-1-((R)-3-Cyclohexyl-2-methylpropanoyl)-4-hydroxy-3,3-dimethylpiperidin-4-yl)methyl)-4-(2-fluorophenyl)-5-(piperazine-1-carbonyl)pyridin-2(1 H)-one], the IC50 is < 0.5 µM.
In the case of `C[C@H](CC1CCCCC1)C(=O)N1CC[C@@](O)(Cn2cc(C(=O)N3CCNC[C@H]3CO)c(-c3ccccc3)cc2=O)C(C)(C)C1` [Example 208, 1-(((S)-1-((R)-3-Cyclohexyl-2-methylpropanoyl)-4-hydroxy-3,3-dimethylpiperidin-4-yl)methyl)-5-((S)-2-(hydroxymethyl)piperazine-1-carbonyl)-4-phenylpyridin-2(1H)-one] it was < 0.5 µM; in that of `C[C@H](CC1CCCCC1)C(=O)N1CC[C@@](O)(Cn2cc(C(=O)N(C)C)c(-c3ccccc3)cc2=O)C2(CCCC2)C1` [Example 211, 1-(((S)-7-((R)-3-Cyclohexyl-2-methylpropanoyl)-10-hydroxy-7-azaspiro[4.5]decan-10-yl)methyl)-N,N-dimethyl-6-oxo-4-phenyl-1,6-dihydropyridine-3-carboxamide], < 0.5 µM.
As to `C[C@H](CC1CCCCC1)C(=O)N1CC[C@@](O)(Cn2cc(C(=O)N3CCNCC3)c(-c3ccccc3)cc2=O)C2(CCCC2)C1` [Example 212, 1-(((S)-7-((R)-3-Cyclohexyl-2-methylpropanoyl)-10-hydroxy-7-azaspiro[4.5]decan-10-yl)methyl)-4-phenyl-5-(piperazine-1-carbonyl)pyridin-2(1H)-one], the IC50 is < 0.5 µM.
In the case of `C[C@@H]1CN(C(=O)c2cn(C[C@]3(O)CCN(C(=O)[C@H](C)CC4CCCCC4)CC3(C)C)c(=O)cc2-c2ccccc2)CCN1` [Example 213, 1-(((S)-1-((R)-3-Cyclohexyl-2-methylpropanoyl)-4-hydroxy-3,3-dimethylpiperidin-4-yl)methyl)-5-((R)-3-methylpiperazine-1-carbonyl)-4-phenylpyridin-2(1 H)-one], the IC50 is < 0.5 µM.
In the case of `C[C@H](CC1CCC1)C(=O)N1CC[C@@](O)(Cn2cc(C(=O)N(C)C)c(-c3ccccc3)cc2=O)C2(CCCC2)C1` [Example 214, 1-(((S)-7-((R)-3-Cyclobutyl-2-methylpropanoyl)-10-hydroxy-7-azaspiro[4.5]decan-10-yl)methyl)-N,N-dimethyl-6-oxo-4-phenyl-1,6-dihydropyridine-3-carboxamide] it was < 0.5 µM.
In the case of `C[C@H](CC1CCC1)C(=O)N1CC[C@@](O)(Cn2cc(C(=O)N3CCNCC3)c(-c3ccccc3)cc2=O)C2(CCCC2)C1` [Example 215, 1-(((S)-7-((R)-3-Cyclobutyl-2-methylpropanoyl)-10-hydroxy-7-azaspiro[4.5]decan-10-yl)methyl)-4-phenyl-5-(piperazine-1-carbonyl)pyridin-2(1H)-one] it was < 0.5 µM.

Values taken from patent publication US20220016115A1, “USP19 INHIBITORS FOR USE IN THERAPY” (ALMAC DISCOVERY LIMITED, priority 2018, published 2022).
